In PubChem BioAssay AID2060897 (Molecular Pharmacology Branch, DTP, NCI, 2025):

Test system: 966289-007-R4-J1-PDC complex spheroid viability
Test: Anticancer human tumor 966289-007-R4-J1-PDC patient-derived pancreatic adenocarcinoma cell line growth inhibition [RAS]
Settings: for viability, T/C: stronger effect = lower value
Procedure, shortened: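 Tumour cells grown as complex spheroids with HUVEC endothelial cells and mesenchymal stem cells, treated with RAS pathway inhibitor combinations. Each agent spans half-log steps from near clinical Cmax, or 10 microM where Cmax is unknown.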

[1] = curve of first compound, second compound 0.000949 µM
[2] = curve of first compound, second compound 0.003 µM
[3] = curve of first compound, second compound 0.00949 µM
[4] = curve of first compound, second compound 0.03 µM
[5] = curve of first compound, second compound 0.0949 µM
[6] = curve of first compound, second compound 0.3 µM
[7] = second compound 0.000949 µM, first compound 0.0316 µM
[8] = second compound 0.000949 µM, first compound 0.1 µM
[9] = second compound 0.000949 µM, first compound 0.316 µM
[10] = second compound 0.000949 µM, first compound 1 µM
[11] = second compound 0.000949 µM, first compound 3.16 µM
[12] = second compound 0.000949 µM, first compound 10 µM
[13] = second compound 0.003 µM, first compound 0.0316 µM
[14] = second compound 0.003 µM, first compound 0.1 µM
[15] = second compound 0.003 µM, first compound 0.316 µM
[16] = second compound 0.003 µM, first compound 1 µM
[17] = second compound 0.003 µM, first compound 3.16 µM
[18] = second compound 0.003 µM, first compound 10 µM
[19] = second compound 0.00949 µM, first compound 0.0316 µM
[20] = second compound 0.00949 µM, first compound 0.1 µM
[21] = second compound 0.00949 µM, first compound 0.316 µM
[22] = second compound 0.00949 µM, first compound 1 µM
[23] = second compound 0.00949 µM, first compound 3.16 µM
[24] = second compound 0.00949 µM, first compound 10 µM
[25] = second compound 0.03 µM, first compound 0.0316 µM
[26] = second compound 0.03 µM, first compound 0.1 µM
[27] = second compound 0.03 µM, first compound 0.316 µM
[28] = second compound 0.03 µM, first compound 1 µM
[29] = second compound 0.03 µM, first compound 3.16 µM
[30] = second compound 0.03 µM, first compound 10 µM
[31] = second compound 0.0949 µM, first compound 0.0316 µM
[32] = second compound 0.0949 µM, first compound 0.1 µM
[33] = second compound 0.0949 µM, first compound 0.316 µM
[34] = second compound 0.0949 µM, first compound 1 µM
[35] = second compound 0.0949 µM, first compound 3.16 µM
[36] = second compound 0.0949 µM, first compound 10 µM
[37] = second compound 0.3 µM, first compound 0.0316 µM
[38] = second compound 0.3 µM, first compound 0.1 µM
[39] = second compound 0.3 µM, first compound 0.316 µM
[40] = second compound 0.3 µM, first compound 1 µM
[41] = second compound 0.3 µM, first compound 3.16 µM
[42] = second compound 0.3 µM, first compound 10 µM
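Note: spheroids exposed to agents for one week before readout.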
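Throughout, for viability, T/C: percent viability relative to DMSO vehicle control wells as 100%.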

`C[C@@H](NC(=O)c1ncnc(N)c1Cl)c1ncc(C(=O)Nc2cc(C(F)(F)F)c(Cl)cn2)s1` + CCn1c(-c2cccnc2C(C)OC)c2c3cc(ccc31)N1CCOC(CC(NC(=O)C(C(C)C)N(C)C(=O)C3(F)CCN(C(=O)C#CC(C)(C)N(C)C)CC3)C(=O)N3CCCC(N3)C(=O)OCC(C)(C)C2)C1 was tested, and the IC50 [1] was over 10 µM, the IC50 [2] was over 10 µM and the IC50 [3] was over 10 µM. The IC50 [4] was over 10 µM, the IC50 [5] was over 10 µM and the IC50 [6] was over 10 µM. For the same compound, the viability, T/C [7] was 115%, the viability, T/C [8] was 92.1% and the viability, T/C [9] was 91.9%. The viability, T/C [10] was 47.5%, the viability, T/C [11] was 66.5% and the viability, T/C [12] was 100%. For the same compound, the viability, T/C [13] was 92.5%, the viability, T/C [14] was 75.4% and the viability, T/C [15] was 118%. The viability, T/C [16] was 61%, the viability, T/C [17] was 72.3% and the viability, T/C [18] was 118%. The viability, T/C [19] was 70.2%, the viability, T/C [20] was 80.6% and the viability, T/C [21] was 71.3%. It also gave a viability, T/C [22] of 85%, a viability, T/C [23] of 115% and a viability, T/C [24] of 111%. The viability, T/C [25] was 55.4%, the viability, T/C [26] was 57.1% and the viability, T/C [27] was 81%. It also gave a viability, T/C [28] of 73.5%, a viability, T/C [29] of 120% and a viability, T/C [30] of 98.5%. For the same compound, the viability, T/C [31] was 55.5%, the viability, T/C [32] was 99.1% and the viability, T/C [33] was 87%. For the same compound, the viability, T/C [34] was 78.2%, the viability, T/C [35] was 106% and the viability, T/C [36] was 134%. The viability, T/C [37] was 65.6%, the viability, T/C [38] was 91.7% and the viability, T/C [39] was 90.5%. It also gave a viability, T/C [40] of 117%, a viability, T/C [41] of 146% and a viability, T/C [42] of 105%.
`CCN1CCN(Cc2ccc(Nc3ncc(F)c(-c4cc(F)c5nc(C)n(C(C)C)c5c4)n3)nc2)CC1` was tested, and the viability, T/C (compound 0.00316 µM) was 113% [middle of 4 runs], the viability, T/C (compound 0.01 µM) was 100% [middle of 4 runs] and the viability, T/C (compound 0.316 µM) was 94.4% [middle of 4 runs]. For the same compound, the viability, T/C (compound 1 µM) was 84% [middle of 4 runs] and the IC50 (curve of compound) was over 1 µM.
`CC1(C)CCC(Nc2ncc(C(F)(F)F)c(-c3c[nH]c4c(P(C)(C)=O)c(C#N)ccc34)n2)CN1` (centres undefined) was tested, and the viability, T/C (compound 0.03 µM) was 15.1% [middle of 4 runs], the viability, T/C (compound 0.0949 µM) was 10.5% [middle of 4 runs] and the viability, T/C (compound 0.3 µM) was 8.72% [middle of 4 runs].
For `CC(C)NCC(C(=O)N1CCN(c2ncnc3c2C(C)CC3O)CC1)c1ccc(Cl)cc1` (centres undefined) + C=CC(=O)N1CCN(c2nc(OCC3CCCN3C)nc3c(F)c(-c4nc(N)cc(C)c4C(F)(F)F)c(Cl)cc23)C(C)C1, the IC50 (curve of first compound, second compound 0.00316 µM) was 5.59 µM, the IC50 (curve of first compound, second compound 0.01 µM) was 5.17 µM and the IC50 (curve of first compound, second compound 0.0316 µM) was 5.85 µM. For the same compound, the IC50 (curve of first compound, second compound 0.1 µM) was 5.45 µM, the IC50 (curve of first compound, second compound 0.316 µM) was 5.98 µM and the IC50 (curve of first compound, second compound 1 µM) was 5.35 µM. For the same compound, the viability, T/C (second compound 0.00316 µM, first compound 0.0316 µM) was 99.8%, the viability, T/C (second compound 0.00316 µM, first compound 0.1 µM) was 85.1% and the viability, T/C (second compound 0.00316 µM, first compound 0.316 µM) was 112%. It also gave a viability, T/C (second compound 0.00316 µM, first compound 1 µM) of 101%, a viability, T/C (second compound 0.00316 µM, first compound 3.16 µM) of 70.1% and a viability, T/C (second compound 0.00316 µM, first compound 10 µM) of 29.5%. For the same compound, the viability, T/C (second compound 0.01 µM, first compound 0.0316 µM) was 105%, the viability, T/C (second compound 0.01 µM, first compound 0.1 µM) was 96.7% and the viability, T/C (second compound 0.01 µM, first compound 0.316 µM) was 118%. The viability, T/C (second compound 0.01 µM, first compound 1 µM) was 99.5%, the viability, T/C (second compound 0.01 µM, first compound 3.16 µM) was 61.9% and the viability, T/C (second compound 0.01 µM, first compound 10 µM) was 34.3%. It also gave a viability, T/C (second compound 0.0316 µM, first compound 0.0316 µM) of 99.7%, a viability, T/C (second compound 0.0316 µM, first compound 0.1 µM) of 110% and a viability, T/C (second compound 0.0316 µM, first compound 0.316 µM) of 126%. The viability, T/C (second compound 0.0316 µM, first compound 1 µM) was 104%, the viability, T/C (second compound 0.0316 µM, first compound 3.16 µM) was 67.2% and the viability, T/C (second compound 0.0316 µM, first compound 10 µM) was 35.1%. For the same compound, the viability, T/C (second compound 0.1 µM, first compound 0.0316 µM) was 116%, the viability, T/C (second compound 0.1 µM, first compound 0.1 µM) was 104% and the viability, T/C (second compound 0.1 µM, first compound 0.316 µM) was 132%. The viability, T/C (second compound 0.1 µM, first compound 1 µM) was 110%, the viability, T/C (second compound 0.1 µM, first compound 3.16 µM) was 63.2% and the viability, T/C (second compound 0.1 µM, first compound 10 µM) was 35.4%. It also gave a viability, T/C (second compound 0.316 µM, first compound 0.0316 µM) of 106%, a viability, T/C (second compound 0.316 µM, first compound 0.1 µM) of 97.1% and a viability, T/C (second compound 0.316 µM, first compound 0.316 µM) of 127%. For the same compound, the viability, T/C (second compound 0.316 µM, first compound 1 µM) was 107%, the viability, T/C (second compound 0.316 µM, first compound 3.16 µM) was 67.5% and the viability, T/C (second compound 0.316 µM, first compound 10 µM) was 35.9%. It also gave a viability, T/C (second compound 1 µM, first compound 0.0316 µM) of 101%, a viability, T/C (second compound 1 µM, first compound 0.1 µM) of 95.8% and a viability, T/C (second compound 1 µM, first compound 0.316 µM) of 115%. The viability, T/C (second compound 1 µM, first compound 1 µM) was 90.1%, the viability, T/C (second compound 1 µM, first compound 3.16 µM) was 62.9% and the viability, T/C (second compound 1 µM, first compound 10 µM) was 35.5%.
With `NC1c2ccccc2OC12CCN(c1cnc3c(N4CCCc5ncccc54)n[nH]c3n1)CC2` (centres undefined) + CCn1c(-c2cc(N3CCN(C)CC3)cnc2C(C)OC)c2c3cc(ccc31)-c1csc(n1)CC(NC(=O)C1CC1C)C(=O)N1CCCC(N1)C(=O)OCC(C)(C)C2 the IC50 [1] was over 10 µM, the IC50 [2] was over 10 µM and the IC50 [3] was over 10 µM. For the same compound, the IC50 [4] was over 10 µM, the IC50 [5] was over 10 µM and the IC50 [6] was over 10 µM. For the same compound, the viability, T/C [7] was 88.7%, the viability, T/C [8] was 84% and the viability, T/C [9] was 117%. For the same compound, the viability, T/C [10] was 104%, the viability, T/C [11] was 123% and the viability, T/C [12] was 85%. It also gave a viability, T/C [13] of 121%, a viability, T/C [14] of 93% and a viability, T/C [15] of 88.9%. The viability, T/C [16] was 95.2%, the viability, T/C [17] was 105% and the viability, T/C [18] was 109%. It also gave a viability, T/C [19] of 106%, a viability, T/C [20] of 103% and a viability, T/C [21] of 88.5%. For the same compound, the viability, T/C [22] was 111%, the viability, T/C [23] was 97.1% and the viability, T/C [24] was 89.9%. The viability, T/C [25] was 78.9%, the viability, T/C [26] was 88.8% and the viability, T/C [27] was 103%. The viability, T/C [28] was 105%, the viability, T/C [29] was 119% and the viability, T/C [30] was 69.7%. The viability, T/C [31] was 103%, the viability, T/C [32] was 122% and the viability, T/C [33] was 105%. The viability, T/C [34] was 117%, the viability, T/C [35] was 92.8% and the viability, T/C [36] was 88.4%. For the same compound, the viability, T/C [37] was 103%, the viability, T/C [38] was 88.1% and the viability, T/C [39] was 96.8%. The viability, T/C [40] was 97.3%, the viability, T/C [41] was 91.2% and the viability, T/C [42] was 137%.
